Assay results published in patent US9546157B2, “Asymmetric piperidinyl-substituted ureas as medicines” (Helsinn Healthcare SA, priority 2014, dated 2017).
“Also recorded” adds a separate entry of the source.

Assays:
GHSR1a [1] = molecular target: T1, GHSR1a (Homo sapiens, UniProt Q92847); test: Calcium FLIPR assay, GHSR-1a antagonism (reduction of ghrelin response); assay type: cell-based; details: HEK293/GHSR1a cells, ghrelin 10 nM
T1 construct: expressed in transfected cells; host or cells: HEK293
Summary of the method: (§1)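 Antagonist potency reflects lowering of the 10 nM ghrelin calcium signal in HEK293/GHSR1a cells, with compound and ghrelin given at t=20 sec. Agonism was scored from the 2-minute fluorescence response to compound alone.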

C57BL/6J mice = test: Food intake test in mouse (GHSR1a antagonists); assay type: in vivo; details: for inhibition in vivo at 30 mg/kg / inhibition in vivo at 10 mg/kg: Mus musculus, po
Summary of the method: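 Male C57BL/6J mice (18-22 g) were fasted overnight (16 h before dosing), then randomized by body weight to vehicle or test agent (n=6 each). Cumulative food intake was measured at 1, 2, 4, 8 and 24 hrs post-dose as premeasured food minus uneaten food.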

GHSR1a [2] = molecular target: T1, GHSR1a; test: Calcium FLIPR assay, GHSR-1a agonism; assay type: cell-based; details: HEK293/GHSR1a cells
Summary of the method: as §1

[3] = test system: Marchigian Sardinian alcohol-preferring (msP) rats; test: Operant ethanol self-administration in msP rats; assay type: in vivo, rat; details: for operant responding for alcohol (10% ethanol self-administration), overall: oral 1 h before 30-min session, all doses tested (H0847 1, 3; H0816 3, 10; H0900 and H0860 3, 30 mg/kg)
Procedure: Training continued until stable baseline of alcohol responding was achieved. At this point, before initiation of treatments, rats were trained to gavage administration procedures for three consecutive days (pre-treatment phase) during which they received drug vehicle. At this point animals were tested for the effect of ghrelin antagonists on 10% (v/v) ethanol self-administration. Using a within-subject Latin square design, the first group of msP rats (N=12) was tested for the effect of H0847 (0.0, 1.0 and 3.0 mg/kg), while the second (N=12) was treated with H0816 (0.0, 3.0 and 10.0 mg/kg).
Once the experiment was finished, animals were left in their home cages for several days, in order to wash out the drugs. Then, the same rats were employed to test the remaining ghrelin antagonists compounds H0900 (0.0, 3.0 and 30.0 mg/kg) and H0860 (0.0, 3.0 and 30.0 mg/kg). Once a stable self-administration baseline was reached, treatments begun according to the same experimental procedures described for the previous drugs tested.
All the drugs (or vehicles) were administered orally 1 hour before the beginning of the operant session.
Male genetically selected alcohol-preferring Marchigian Sardinian (msP) rats were used (N=24). At the time of the experiments their body weight ranged between 350 and 400 g. They were housed 4 per cages in a room with a reverse 12:12 h light/dark cycle (lights off at 9:30 a.m.), temperature of 20-22° C. and humidity of 45-55%. Rats were offered free access to tap water and food pellets (4RF18, Mucedola, Settimo Milanese, Italy). All the procedures were conducted in adherence with the European Community Council Directive for Care and Use of Laboratory Animals and the National Institutes of Health Guide for the Care and Use of Laboratory Animals.
75 mg of each H0900 and H0860 were accurately weighed and suspended in 10 ml of 0.5% carboxymethyl cellulose sodium salt solution (CMC, Sigma-Aldrich Cat. C4888, lot 120M0216V). The lower dose solution was prepared by dilution of 30 mg/ml suspension with 0.5% CMC solution.
37.5 mg of H0816 were accurately weighed and suspended in 15 ml of 0.5% carboxymethyl cellulose sodium salt solution (CMC, Sigma-Aldrich Cat. C4888, lot 120M0216V). The lower dose solution was prepared by dilution of mg/ml suspension with 0.5% CMC solution.
11.25 mg of H0847 were accurately weighed and suspended in 15 ml of 0.5% carboxymethyl cellulose sodium salt solution (CMC, Sigma-Aldrich Cat. C4888, lot 120M0216V). The lower dose solution was prepared by dilution of mg/ml suspension with 0.5% CMC solution.
Suspensions were prepared freshly on test day. Vehicle was composed of a solution of 0.5% carboxymethyl cellulose sodium salt and was prepared by dissolving 1 g of CMC in 200 ml of distilled water. Vehicle and drugs were administered by gavage in a volume of 4 ml/kg of body weight 1 hour before the access to 10% alcohol solution. 10% (v/v) ethanol solution was prepared every two days by diluting 95% (v/v) ethanol solution (F.L. CARSETTI s.n.c-CAMERINO) in drinkable water.
The self-administration stations consisted of operant conditioning chambers (Med Associate, Inc) enclosed in sound-attenuating, ventilated environmental cubicles. Each chamber was equipped with a drinking reservoir (volume capacity: […]) positioned 4 cm above the grid floor in the centre of the front panel of the chamber, two retractable levers located 3 cm (one to the right and the other to the left) of the drinking receptacle and a white cue light located 6 cm above the lever. […] An IBM-compatible computer controlled the delivery of fluids (activation of syringe pump), presentation of visual stimuli and recording of the behavioral data.
Using operant self-administration chambers (Med Associates), msP rats were trained to lever press for 10% alcohol (v/v) until stable baseline of responding were achieved. 16 self-administration training sessions were carried out to train the animals. […]

[4] = Metabolic Stability (H = Human); assay type: in vitro ADME
[5] = 3 mg/kg oral 1 h before session
[6] = 30 mg/kg oral 1 h before session

T1 sequence (Q92847 whole entry): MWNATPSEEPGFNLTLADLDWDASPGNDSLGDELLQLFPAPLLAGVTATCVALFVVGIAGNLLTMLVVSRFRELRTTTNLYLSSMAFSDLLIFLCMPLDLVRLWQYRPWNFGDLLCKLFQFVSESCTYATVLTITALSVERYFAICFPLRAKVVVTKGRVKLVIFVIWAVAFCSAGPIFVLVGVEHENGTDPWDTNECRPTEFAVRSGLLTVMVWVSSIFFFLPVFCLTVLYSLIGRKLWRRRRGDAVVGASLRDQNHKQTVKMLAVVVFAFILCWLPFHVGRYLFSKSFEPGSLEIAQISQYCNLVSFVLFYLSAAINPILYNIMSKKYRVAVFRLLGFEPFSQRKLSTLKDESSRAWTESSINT

IC50 (GHSR1a [1]) [nM]	EC50 (GHSR1a [2]) [µM]	Metabolic Stability H [4]	Structure (SMILES)	inhibition in vivo at 30 mg/kg (C57BL/6J mice; 30 mg/kg PO fasted mice, time not given) [%]	operant responding for alcohol (10% ethanol self-administration), overall [3]	Mouse Food Intake, result in words (C57BL/6J mice; PO 10 mg/kg + ANA (ANAM) 30 mg/kg mice)	inhibition in vivo at 10 mg/kg (C57BL/6J mice; 1 h, PO 10 mg/kg + ANA 30 mg/kg mice) [%]	alcohol self-administration, post hoc [3, 5]	alcohol self-administration, post hoc [3, 6]	inhibition in vivo at 10 mg/kg (C57BL/6J mice; 1 h, PO 10 mg/kg + ANA 30 mg/kg fed mice) [%]	inhibition in vivo at 30 mg/kg (C57BL/6J mice; 1 h, PO 30 mg/kg + ANA 30 mg/kg fed mice) [%]	inhibition in vivo at 30 mg/kg (C57BL/6J mice; 1 h, PO 30 mg/kg fasted mice) [%]	inhibition in vivo at 30 mg/kg (C57BL/6J mice; 1 h, PO 30 mg/kg fed mice) [%]
5.1	> 30	–	C[C@H](NC(=O)N(C)C1CCN(C)CC1)c1ccc(-c2cnccn2)c(Cl)c1Cl [Compound H0816, (S)-3-(1-(2,3-dichloro-4-(pyrazin-2-yl)phenyl)ethyl)-1-methyl-1-(1-methylpiperidin-4-yl)urea]	12	had no effect on operant responding for alcohol; also recorded: had no effect on ethanol responses	–	–	–	–	–	–	–	–
2	> 30	High H High M	C[C@H](NC(=O)N(C)C1CCN(C)CC1)c1ccc(-c2cncc(F)n2)c(Cl)c1Cl [Compound H0847, (S)-3-(1-(2,3-dichloro-4-(6-fluoropyrazin-2-yl)phenyl)ethyl)-1-methyl-1-(1-methylpiperidin-4-yl)urea]	–	had no effect on operant responding for alcohol; also recorded: had no effect on ethanol responses	PO 10 mg/kg + ANA 30 mg/kg mice: NSE	–	–	–	–	–	–	–
3	> 30	High H High M	CC[C@H](NC(=O)N(C)C1CCN(C)CC1)c1ccc(-c2cnccn2)c(Cl)c1Cl [Compound H0860, (S)-3-(1-(2,3-dichloro-4-(pyrazin-2-yl)phenyl)propyl)-1-methyl-1-(1-methylpiperidin-4-yl)urea]	–	significantly reduced operant responding for alcohol; also recorded: statistically significant decrease in ethanol self-administration	–	68	only the higher dose (30 mg/kg) reduced ethanol self-administration	significant reduction of alcohol self-administration	–	–	–	–
3	> 30	Medium	CN1CCC(N(C)C(=O)N[C@H](c2ccc(-c3cnccn3)c(Cl)c2Cl)C(F)(F)F)CC1 [Compound H0900, (R)-3-(1-(2,3-dichloro-4-(pyrazin-2-yl)phenyl)-2,2,2-trifluoroethyl)-1-methyl-1-(1-methylpiperidin-4-yl)urea]	–	significantly reduced operant responding for alcohol; also recorded: statistically significant decrease in ethanol self-administration	–	–	significant reduction of alcohol self-administration	significant reduction of alcohol self-administration	60	91	26	90
